Assay results taken from the NIST ThermoML archive (doi:10.1016/j.jct.2018.12.028).
± gives the expanded uncertainty stated by the source.

Experiments:
[1] = 101.3 kPa, Liquid; for viscosity: Falling or rolling sphere viscometry; for mass density: Vibrating tube method
[2] = wn = mass fraction of the nth substance listed; conditions: 101.3 kPa, Liquid, w1 = 1; for viscosity: Falling or rolling sphere viscometry; for mass density: Vibrating tube method

## COCCO [2-methoxyethan-1-ol]
[1]; 293.15 K
  viscosity: 1.692 ± 0.071 mPa·s
  mass density: 964.7 ± 2 kg/m3
[1]; 298.15 K
  viscosity: 1.527 ± 0.064 mPa·s
  mass density: 960.1 ± 2 kg/m3
[1]; 303.15 K
  viscosity: 1.386 ± 0.058 mPa·s
  mass density: 955.5 ± 2 kg/m3
[1]; 308.15 K
  viscosity: 1.262 ± 0.053 mPa·s
  mass density: 950.9 ± 2 kg/m3
[1]; 313.15 K
  viscosity: 1.155 ± 0.048 mPa·s
  mass density: 946.2 ± 2 kg/m3
[1]; 318.15 K
  viscosity: 1.061 ± 0.044 mPa·s
  mass density: 941.5 ± 2 kg/m3
[1]; 323.15 K
  viscosity: 0.9781 ± 0.041 mPa·s
  mass density: 936.7 ± 2 kg/m3
[1]; 328.15 K
  viscosity: 0.905 ± 0.037 mPa·s
  mass density: 932 ± 2 kg/m3
[1]; 333.15 K
  viscosity: 0.8397 ± 0.035 mPa·s
  mass density: 927.2 ± 2 kg/m3
[1]; 338.15 K
  viscosity: 0.7818 ± 0.032 mPa·s
  mass density: 922.3 ± 2 kg/m3
[1]; 343.15 K
  viscosity: 0.7298 ± 0.03 mPa·s
  mass density: 917.4 ± 2 kg/m3
[1]; 348.15 K
  viscosity: 0.6834 ± 0.028 mPa·s
  mass density: 912.4 ± 2 kg/m3
[1]; 353.15 K
  viscosity: 0.6409 ± 0.026 mPa·s
  mass density: 907.4 ± 2 kg/m3

## NCCO [2-aminoethan-1-ol]
[1]; 293.15 K
  viscosity: 24.23 ± 0.99 mPa·s
  mass density: 1016.7 ± 2 kg/m3
[1]; 298.15 K
  viscosity: 18.94 ± 0.77 mPa·s
  mass density: 1012.8 ± 2 kg/m3
[1]; 303.15 K
  viscosity: 15.04 ± 0.61 mPa·s
  mass density: 1008.8 ± 2 kg/m3
[1]; 308.15 K
  viscosity: 12.14 ± 0.49 mPa·s
  mass density: 1004.9 ± 2 kg/m3
[1]; 313.15 K
  viscosity: 9.938 ± 0.4 mPa·s
  mass density: 1000.9 ± 2 kg/m3
[1]; 318.15 K
  viscosity: 8.236 ± 0.34 mPa·s
  mass density: 996.9 ± 2 kg/m3
[1]; 323.15 K
  viscosity: 6.907 ± 0.28 mPa·s
  mass density: 992.9 ± 2 kg/m3
[1]; 328.15 K
  viscosity: 5.855 ± 0.24 mPa·s
  mass density: 988.8 ± 2 kg/m3
[1]; 333.15 K
  viscosity: 5.011 ± 0.2 mPa·s
  mass density: 984.8 ± 2 kg/m3
[1]; 338.15 K
  viscosity: 4.327 ± 0.18 mPa·s
  mass density: 980.7 ± 2 kg/m3
[1]; 343.15 K
  viscosity: 3.766 ± 0.15 mPa·s
  mass density: 976.6 ± 2 kg/m3
[1]; 348.15 K
  viscosity: 3.3 ± 0.13 mPa·s
  mass density: 972.5 ± 2 kg/m3
[1]; 353.15 K
  viscosity: 2.908 ± 0.12 mPa·s
  mass density: 968.4 ± 2 kg/m3

## NCCO [2-aminoethan-1-ol] + COCCO
[2]; 293.15 K
  viscosity: 24.23 ± 0.99 mPa·s
  mass density: 1016.7 ± 2 kg/m3
[2]; 298.15 K
  viscosity: 18.94 ± 0.77 mPa·s
  mass density: 1012.8 ± 2 kg/m3
[2]; 303.15 K
  viscosity: 15.04 ± 0.61 mPa·s
  mass density: 1008.8 ± 2 kg/m3
[2]; 308.15 K
  viscosity: 12.14 ± 0.49 mPa·s
  mass density: 1004.9 ± 2 kg/m3
[2]; 313.15 K
  viscosity: 9.938 ± 0.4 mPa·s
  mass density: 1000.9 ± 2 kg/m3
[2]; 318.15 K
  viscosity: 8.236 ± 0.34 mPa·s
  mass density: 996.9 ± 2 kg/m3
[2]; 323.15 K
  viscosity: 6.907 ± 0.28 mPa·s
  mass density: 992.9 ± 2 kg/m3
[2]; 328.15 K
  viscosity: 5.855 ± 0.24 mPa·s
  mass density: 988.8 ± 2 kg/m3
[2]; 333.15 K
  viscosity: 5.011 ± 0.2 mPa·s
  mass density: 984.8 ± 2 kg/m3
[2]; 338.15 K
  viscosity: 4.327 ± 0.18 mPa·s
  mass density: 980.7 ± 2 kg/m3
[2]; 343.15 K
  viscosity: 3.766 ± 0.15 mPa·s
  mass density: 976.6 ± 2 kg/m3
[2]; 348.15 K
  viscosity: 3.3 ± 0.13 mPa·s
  mass density: 972.5 ± 2 kg/m3
[2]; 353.15 K
  viscosity: 2.908 ± 0.12 mPa·s
  mass density: 968.4 ± 2 kg/m3
